Test results from patent US20030044497A1, “Process to treat fish with tasteless smoke or carbon monoxide through the respiratory and circulatory systems” (priority 2001, published 2003).

What was measured:
[1] = CO gill absorption formula calculation for tuna; details: yellowfin tuna, hemoglobin 11-12 grams/deciliter x 1.39
Method: Hemoglobin CO capacity is 1.39 multiplied times the hemoglobin concentration in the blood which gives ml of CO per gram of Hb per deciliter of blood. For example, from the cardiorespiratory table above the hemoglobin concentration of yellowfin tuna is 11-12 grams/deciliter and when multiplied by 1.39 the result is 15.3-16.7 ml CO/deciliter of blood as the COHb capacity of yellowfin.
Maximum saturation time is a function of the gill absorption rate and reaching saturation equilibrium within the fish blood and the fish tissue. This absorption rate has two components, the CO bound to the Hb and the free CO diffused through the gills directly into the blood plasma. It can be computed by the following relationship:
CO gill absorption=(cardiac output*(Hb*1.39*%sat)*wt)+((cardiac output*(0.029*PCO)/100)*wt)
Cardiac output is in ml blood/min/kg; Hb is blood hemoglobin in grams/ml (Hb is divided by 100 to convert dl to ml; wt is fish weight in kg; 0.0029 is the solubility of CO in mlCO/dl; PCO is the partial pressure of CO in mmHg (0.0029*PCO) is divided by 100 to convert dl to ml.
From the cardiorespiratory function table above, we assume a yellowfin tuna with wt=1 kg; Hb=0.11 gm/ml; cardiac output=115 ml/min/kg; %sat=100%; and PCO=228 mmHg which is the partial pressure of tasteless smoke comprised of 30% CO. […]

[2] = Increase of CO concentration in treated flesh; details: treated fish flesh or other meats
Method: However, when natural fish flesh or other meats are treated with carbon monoxide the concentrations in the flesh can increase incrementally from approximately 1.1 to 20 times and on occasion to as much as 80 times. These observed and measured increases in carbon monoxide in the flesh are dependent upon several factors including the quantity of myoglobin in the fish and other meats, carbon monoxide concentration, time, and method of exposure.

[3] = 24 degrees Centigrade, one atmosphere, 20% reduction for seawater medium
From the text: The volume of gas, vo, (in milliliters STPD) dissolved in one liter of water at one atmosphere pressure (760 mm Hg) is expressed by the following formula:
vo=absorption coefficient×(V×Po)
where V is the volume of the solvent, and Po is the partial pressure of the gas in atmospheres. Therefore, the amount of gas dissolved is dependent upon its partial pressure in a linear relationship.
The coefficient of solubility is defined as the volume of the gas taken up by a unit volume of the solvent under a particular set of temperature and pressure conditions. If v is the volume of the dissolved gas, measured at temperature T and partial pressure Pg atm, with To equal to 0 degrees Centigrade, then:

[4] = liquid water or blood plasma; cited from earlier work
hemoglobin = details: cited from earlier work
Humans = details: cited from earlier work

Row | Compound | COHb capacity of blood [1] | increase of CO concentration in the flesh over natural, on occasion [2] [times] | maximum solubility [3] [ml CO per liter H2O] | solubility constant [4] | P50 partial pressure at which half the hemoglobin is saturated (hemoglobin) [mmHg] | COHb level at which rapid death occurs (Humans) | half-life (time for a 50% COHb reduction in the blood) (Humans) [h]
1 | [C-]#[O+] [CO, carbon monoxide] | 15.3-16.7 ml CO/deciliter of blood | ≤ 80 | 17.63 | 0.029 mlCO/liter H2O/mmHgCO | 0.4 | exceed 80% | 5
2 | O=O [O2, oxygen, reference compound] |  |  |  | 0.030 ml O2/liter H2O/mm1Hg O2 |  |  | 
